Test results reported in patent publication US9975881B2, “Compound” (ASTRAZENECA AB, priority 2011, dated 2018).

Legend:
[1] = biological target: T1, human CXCR2 (Homo sapiens, UniProt P25025); assay: Potency (pIC50) - ligand binding assay, Alexa647 IL-8 displacement from CXCR2 membranes; conditions: 50% reduction in specific Alexa647 IL-8 (1 nM) binding to HEK293 human CXCR2 membranes
T1 construct: expressed in transfected cells
T1 sequence (P25025 1-360): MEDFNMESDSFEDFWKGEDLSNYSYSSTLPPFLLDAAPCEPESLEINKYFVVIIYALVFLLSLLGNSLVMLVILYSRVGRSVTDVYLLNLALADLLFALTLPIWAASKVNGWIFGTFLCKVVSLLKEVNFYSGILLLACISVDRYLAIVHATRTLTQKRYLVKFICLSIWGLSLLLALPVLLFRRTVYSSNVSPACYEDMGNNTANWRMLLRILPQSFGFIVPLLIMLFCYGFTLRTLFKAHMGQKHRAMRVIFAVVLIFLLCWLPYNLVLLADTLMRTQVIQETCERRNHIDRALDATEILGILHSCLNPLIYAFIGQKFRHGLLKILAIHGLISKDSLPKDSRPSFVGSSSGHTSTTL
Source text: Potency (pIC50)—Ligand Binding Assay
Human Embryonic Kidney 293 cells (HEK293 cells) from the American Type Culture Collection were transfected with human CXCR2 cDNA (RefSeqNM_001557), previously cloned into the eukaryotic expression vector pIRES-Neo2, (Clontech). Populations of Geneticin (Invitrogen)-resistant cells were selected for stable expression of CXCR2 and clones were generated by dilution cloning (0.3 cells/well) in 96-well tissue culture plates.
Cells of the highest expressing clone (Clone 6, identified by FACS analysis) were harvested, following 24 hour pre-treatment with 5 mM sodium butyrate, in 10 ml of ice-cold hypotonic buffer (20 mM HEPES, 1 mM EDTA, 0.1 mM DTT, 0.1 mM Phenyl Methyl Sulphonyl Fluoride and 0.1 mg/L Bacitracin, pH7.4) and left to swell for 10 min. Following centrifugation (200 g, 5 min, 4° C.), cells were resuspended in hypotonic buffer and membranes were prepared using a polytron tissue homogenizer (3×10 second treatments). […]
All assays were performed in black, 384-well plates (Greiner). […] Total binding of Alexa^647 IL-8 was determined in the absence of competing compound and non-specific binding of Alexa^647 IL-8 was determined in the presence of 0.3 μM 1-(4-chloro-2-hydroxy-3-sulfamoyl-phenyl)-3-(2,3-dichlorophenyl)urea. […]

[2] = Distribution coefficient at pH 7.4 (Log D7.4), 1-octanol/phosphate buffer; type: physicochemical; conditions: 1-octanol / 0.02 M phosphate buffer pH 7.4
Procedure: Measurement of Distribution Coefficient at pH 7.4 (Log D7.4)
Compounds of interest (1 mg) were dispensed into individual 1-mL polypropylene vials, held within a 96-well plate along with 1-octanol (700 μL), and presaturated with 0.02 M phosphate buffer (pH 7.4). The plate was then shaken overnight followed by centrifugation (800 g for 15 min) to sediment any undissolved solids. Up to 24 mixtures of 10 compounds (or less) were then prepared by pooling the 1-octanol solutions (100 μL) into a plate of 12-mL glass sample tubes. […] The pooling of compounds was performed robotically and controlled using automatically generated bespoke work lists. If a mixture contained less than 10 compounds, then 1-octanol (presaturated with 0.02 M phosphate buffer [pH 7.4]) was added to make up the total volume of the 1-octanol phase to 1 mL. 1-Octanol-saturated phosphate buffer (0.02 M, pH 7.4, 2 mL) was then added to each mixture before shaking (450 rpm for 30 min) and centrifugation (800 g for 15 min). The final 1-octanol and aqueous phases of each partition mixture were then robotically separated. […] Log D7.4 was calculated from the ratio of one of the 1-octanol relative concentrations to the interpolated aqueous relative concentration after correcting for the extent of dilution of both the 1-octanol and aqueous solutions.

IC50 [1]: 3.98 nM
logD [2]: 1.9
SMILES: CC1CN(S(=O)(=O)Nc2cc(O[C@H](C)[C@@H](O)CO)nc(SCc3ccc(F)cc3)n2)C1 [Example 1, N-(6-((2R,3S)-3,4-Dihydroxybutan-2-yloxy)-2-(4-fluorobenzylthio)pyrimidin-4-yl)-3-methylazetidine-1-sulfonamide]
